Test system: gram-positive and gram-negative bacteria
Experiment: Antibacterial activity, overall statement (diffusion discs test); note: key: +: active; −: inactive
Type: cell-based
Details: Table 6 summary
Method in brief: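 Compounds in acetonitrile at 40 mM, 20 μl dried onto filter paper discs, laid on lawns of B. subtilis, S. aureus, A. baumannii (LB agar) or S. sobrinus, S. mutans (BHI agar) from overnight cultures. Incubated overnight at 37° C; inhibition zone diameter measured.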

Structure (SMILES): COc1cc(/C=C/C(=O)N2CCC=CC2=O)cc(O)c1O [PL-18, Dihydroxy piperlongumine]
- Antibacterial: −

From patent publication US20240109855A1, “ANTI-QUORUM SENSING, ANTI-BIOFILM, AND INFLAMMATION ATTENUATING COMPOUNDS, COMPOSITIONS, AND METHODS OF USING SAME” (priority 2021, published 2024)
